Data published in patent publication US9708314B2, “Heterocyclic amide compound” (NISSAN CHEMICAL INDUSTRIES, LTD., priority 2013, dated 2017).

Columns and labels:
Format in all cases: in vivo
[1] = test system: Triticum aestivum; assay: Test Example 4: effect on crop by application to foliage (diluvial soil, plastic box); details: Application herbicide amount 320 g/ha; foliage application
Summary of the method: (§1)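 Plants were grown in sterilized diluvial soil in a greenhouse at 25-30° C for 14 days, then sprayed on stems and leaves with water-diluted emulsion formulation at set rates in g/ha. Weed control and crop injury were scored 3 weeks after treatment on a 0-5 herbicidal-ratio scale, from 0 (≤5%) to 5 (≥90%).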

[2] = test system: Zea mays; assay: as above; details: Application herbicide amount 320 g/ha; foliage application
Summary of the method: as §1

[3] = test system: Beta vulgaris ssp. vulgaris; assay: as above; details: Application herbicide amount 320 g/ha; foliage application
Summary of the method: as §1

[4] = test system: Glycine max; assay: as above; details: Application herbicide amount 320 g/ha; foliage application
Summary of the method: as §1

[5] = test system: Brassica campestris L.; assay: as above; details: Application herbicide amount 320 g/ha; foliage application
Summary of the method: as §1

[6] = test system: Amaranthus retroflexus; assay: Test Example 4: herbicidal effect by application to foliage (diluvial soil, plastic box); details: Application herbicide amount 320 g/ha; foliage application
Summary of the method: as §1

[7] = test system: Chenopodium album; assay: as above; details: Application herbicide amount 320 g/ha; foliage application
Summary of the method: as §1

[8] = test system: Abutilon theophrasti; assay: as above; details: Application herbicide amount 320 g/ha; foliage application
Summary of the method: as §1

[9] = test system: Apera spica-venti.; assay: as above; details: Application herbicide amount 320 g/ha; foliage application
Summary of the method: as §1

[10] = test system: Alopecurus myosuroides; assay: as above; details: Application herbicide amount 320 g/ha; foliage application
Summary of the method: as §1

[11] = test system: Digitaria ciliaris; assay: as above; details: Application herbicide amount 320 g/ha; foliage application
Summary of the method: as §1

[12] = test system: Veronica persica; assay: as above; details: Application herbicide amount 320 g/ha; foliage application
Summary of the method: as §1

[13] = test system: Echinochloa crus-galli var. crus-galli; assay: as above; details: Application herbicide amount 320 g/ha; foliage application
Summary of the method: as §1

[14] = test system: Setaria viridis; assay: as above; details: Application herbicide amount 320 g/ha; foliage application
Summary of the method: as §1

[15] = test system: Stellaria media; assay: as above; details: Application herbicide amount 320 g/ha; foliage application
Summary of the method: as §1

[16] = test system: Galium spurium; assay: as above; details: Application herbicide amount 320 g/ha; foliage application
Summary of the method: as §1

[17] = test system: Avena fatua; assay: as above; details: Application herbicide amount 320 g/ha; foliage application
Summary of the method: as §1

[18] = test system: Lolium multiflorum Lam.; assay: as above; details: Application herbicide amount 320 g/ha; foliage application
Summary of the method: as §1

[19] = test system: Echinochloa oryzacola Vasing.; assay: Test Example 1: herbicidal activity, application before weed generation in submerged conditions; details: Application herbicide amount 320 g/ha; Seventeenth Table
Summary of the method: (§2)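 Pre-emergence application to water surface of submerged pots (4 cm depth, alluvial soil) on sowing day, with 2.5-leaf rice transplanted; emulsion diluted to g/ha rates. Grown in greenhouse at 25–30 °C; 0–5 herbicidal/crop-effect score after three weeks.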

[20] = test system: Monochoria vaginalis; assay: as above; details: Application herbicide amount 320 g/ha; Seventeenth Table
Summary of the method: as §2

[21] = test system: Scirpus juncoides; assay: as above; details: Application herbicide amount 320 g/ha; Seventeenth Table
Summary of the method: as §2

| SMILES | e (Triticum aestivum) effect on crop grade [1] | c (Zea mays) effect on crop grade [2] | f (Beta vulgaris ssp. vulgaris) effect on crop grade [3] | d (Glycine max) effect on crop grade [4] | g (Brassica campestris L.) effect on crop grade [5] | N (Amaranthus retroflexus) herbicidal effect grade [6] | O (Chenopodium album) herbicidal effect grade [7] | M (Abutilon theophrasti) herbicidal effect grade [8] | L (Apera spica-venti.) herbicidal effect grade [9] | J (Alopecurus myosuroides) herbicidal effect grade [10] | F (Digitaria ciliaris) herbicidal effect grade [11] | R (Veronica persica) herbicidal effect grade [12] | H (Echinochloa crus-galli var. crus-galli) herbicidal effect grade [13] | G (Setaria viridis) herbicidal effect grade [14] | P (Stellaria media) herbicidal effect grade [15] | Q (Galium spurium) herbicidal effect grade [16] | I (Avena fatua) herbicidal effect grade [17] | K (Lolium multiflorum Lam.) herbicidal effect grade [18] | A: Echinochloa oryzicola Vasing. (herbicidal effect grade) [19] | C: Monochoria vaginalis (herbicidal effect grade) [20] | also measured |
| --- | --- | --- | --- | --- | --- | --- | --- | --- | --- | --- | --- | --- | --- | --- | --- | --- | --- | --- | --- | --- | --- |
| CC(=O)CSc1nnc2c(C(=O)Nc3nnc(C)o3)ccc(C(F)(F)F)n12 [1-125] | 1 (Herbicidal ratio of 5% or more and less than 20%) | 2 (Herbicidal ratio of 20% or more and less than 40%) | 5 (Herbicidal ratio of 90% or more (almost completely withered)) | 3 (Herbicidal ratio of 40% or more and less than 70%) | 3 (Herbicidal ratio of 40% or more and less than 70%) | 3 (Herbicidal ratio of 40% or more and less than 70%) | 5 (Herbicidal ratio of 90% or more (almost completely withered)) | 3 (Herbicidal ratio of 40% or more and less than 70%) | 0 (Herbicidal ratio of 5% or less (almost no effect)) | 0 (Herbicidal ratio of 5% or less (almost no effect)) | 4 (Herbicidal ratio of 70% or more and less than 90%) | 0 (Herbicidal ratio of 5% or less (almost no effect)) | 4 (Herbicidal ratio of 70% or more and less than 90%) | 1 (Herbicidal ratio of 5% or more and less than 20%) | 4 (Herbicidal ratio of 70% or more and less than 90%) | 0 (Herbicidal ratio of 5% or less (almost no effect)) | 1 (Herbicidal ratio of 5% or more and less than 20%) | 0 (Herbicidal ratio of 5% or less (almost no effect)) | 0 (Herbicidal ratio of 5% or less (almost no effect)) | 1 (Herbicidal ratio of 5% or more and less than 20%) | B: Scirpus juncoides (herbicidal effect grade) [21]: 3 (Herbicidal ratio of 40% or more and less than 70%) |
| Cc1nnc(NC(=O)c2ccc(C(F)(F)F)n3c(SCC4OCCO4)nnc23)o1 [1-126] | 0 (Herbicidal ratio of 5% or less (almost no effect)) | 1 (Herbicidal ratio of 5% or more and less than 20%) | 5 (Herbicidal ratio of 90% or more (almost completely withered)) | 2 (Herbicidal ratio of 20% or more and less than 40%) | 3 (Herbicidal ratio of 40% or more and less than 70%) | 3 (Herbicidal ratio of 40% or more and less than 70%) | 5 (Herbicidal ratio of 90% or more (almost completely withered)) | 3 (Herbicidal ratio of 40% or more and less than 70%) | 1 (Herbicidal ratio of 5% or more and less than 20%) | 0 (Herbicidal ratio of 5% or less (almost no effect)) | 4 (Herbicidal ratio of 70% or more and less than 90%) | 4 (Herbicidal ratio of 70% or more and less than 90%) | 5 (Herbicidal ratio of 90% or more (almost completely withered)) | 3 (Herbicidal ratio of 40% or more and less than 70%) | 5 (Herbicidal ratio of 90% or more (almost completely withered)) | 1 (Herbicidal ratio of 5% or more and less than 20%) | 0 (Herbicidal ratio of 5% or less (almost no effect)) | 0 (Herbicidal ratio of 5% or less (almost no effect)) | 3 (Herbicidal ratio of 40% or more and less than 70%) | 2 (Herbicidal ratio of 20% or more and less than 40%) | B: Scirpus juncoides (herbicidal effect grade) [21]: 4 (Herbicidal ratio of 70% or more and less than 90%) |
| CSCCNc1nnc2c(C(=O)Nc3nnc(C)o3)ccc(C(F)(F)F)n12 [1-130] | 0 (Herbicidal ratio of 5% or less (almost no effect)) | 0 (Herbicidal ratio of 5% or less (almost no effect)) | 5 (Herbicidal ratio of 90% or more (almost completely withered)) | 3 (Herbicidal ratio of 40% or more and less than 70%) | 4 (Herbicidal ratio of 70% or more and less than 90%) | 3 (Herbicidal ratio of 40% or more and less than 70%) | 5 (Herbicidal ratio of 90% or more (almost completely withered)) | 3 (Herbicidal ratio of 40% or more and less than 70%) | 1 (Herbicidal ratio of 5% or more and less than 20%) | 1 (Herbicidal ratio of 5% or more and less than 20%) | 4 (Herbicidal ratio of 70% or more and less than 90%) | 3 (Herbicidal ratio of 40% or more and less than 70%) | 5 (Herbicidal ratio of 90% or more (almost completely withered)) | 4 (Herbicidal ratio of 70% or more and less than 90%) | 3 (Herbicidal ratio of 40% or more and less than 70%) | 4 (Herbicidal ratio of 70% or more and less than 90%) | 1 (Herbicidal ratio of 5% or more and less than 20%) | 1 (Herbicidal ratio of 5% or more and less than 20%) | 1 (Herbicidal ratio of 5% or more and less than 20%) | 0 (Herbicidal ratio of 5% or less (almost no effect)) | B: Scirpus juncoides (herbicidal effect grade) [21]: 0 (Herbicidal ratio of 5% or less (almost no effect)) |
| Cc1nnc(NC(=O)c2ccc(C(F)(F)F)n3c(NCC(F)(F)F)nnc23)o1 [1-131] | 0 (Herbicidal ratio of 5% or less (almost no effect)) | 0 (Herbicidal ratio of 5% or less (almost no effect)) | 3 (Herbicidal ratio of 40% or more and less than 70%) | 3 (Herbicidal ratio of 40% or more and less than 70%) | 0 (Herbicidal ratio of 5% or less (almost no effect)) | 3 (Herbicidal ratio of 40% or more and less than 70%) | 5 (Herbicidal ratio of 90% or more (almost completely withered)) | 3 (Herbicidal ratio of 40% or more and less than 70%) | 0 (Herbicidal ratio of 5% or less (almost no effect)) | 0 (Herbicidal ratio of 5% or less (almost no effect)) | 4 (Herbicidal ratio of 70% or more and less than 90%) | 3 (Herbicidal ratio of 40% or more and less than 70%) | 4 (Herbicidal ratio of 70% or more and less than 90%) | 3 (Herbicidal ratio of 40% or more and less than 70%) | 3 (Herbicidal ratio of 40% or more and less than 70%) | 0 (Herbicidal ratio of 5% or less (almost no effect)) | 0 (Herbicidal ratio of 5% or less (almost no effect)) | 0 (Herbicidal ratio of 5% or less (almost no effect)) | 2 (Herbicidal ratio of 20% or more and less than 40%) | 0 (Herbicidal ratio of 5% or less (almost no effect)) | B: Scirpus juncoides (herbicidal effect grade) [21]: 1 (Herbicidal ratio of 5% or more and less than 20%) |
